From patent publication US8372176B2, “Metal complexes comprising a ligand derived from 2-aryl-2-hydroxyacetic acid and a divalent or trivalent metal cation, and their use” (Clariant Specialty Fine Chemicals (France), priority 2006, dated 2013)
One block for each compound: values may come before it.

How the values were obtained:
[1] = Dissolution of FeCl3 with ligand in aqueous phase at neutral or basic pH; Fe in filtrate by ICP-OES; assay type: physicochemical
Protocol: (§1) The invention is illustrated without implied limitation by the following examples, in which the amounts of metals in solution were measured by ICP-OES (Inductively Coupled Plasma-Optical Emission Spectroscopy).
(§2) In the examples which follow, the term “theoretical % by weight of metal in solution” is understood to mean the ratio, expressed as percentage, of the total weight of metal initially introduced into the reaction medium to the weight of the filtrate recovered and analysed.
(§3) 4.92 g (0.025 mol) of OHMNa are dissolved in 19.17 ml of water. 20.27 g of an aqueous solution comprising 6.76 g of FeCl3 hexahydrate (0.025 mol) are added over 15 min while maintaining the temperature of the reaction medium at approximately 20° C. The pH of the solution is adjusted to 7 by addition of a 50% by weight aqueous sodium hydroxide solution (5.87 g). The mixture is subsequently stirred at ambient temperature for 24 h. After filtering and washing with water, 59.9 g of a solution with a dark brown-red colour are recovered.
8.11 g of FeCl3 hexahydrate are dissolved in 12 ml of water. The pH is adjusted to 7 by addition of a 50% by weight aqueous sodium hydroxide solution. After filtering and washing with water, less than 10 ppm of Fe are measured in the filtrate.
2.05 g (0.01 mol) of 5-chloro-2-hydroxymandelic acid are suspended in 15 ml of water. 0.8 g of 50% by weight sodium hydroxide solution (0.01 mol) is added in order to obtain a solution. 17.7 g of an aqueous solution comprising 2.7 g of FeCl3 hexahydrate (0.01 mol) are added over 15 min while maintaining the temperature of the reaction medium at approximately 20° C. The pH of the solution is adjusted to 7 by addition of 2.4 g of a 50% by weight aqueous sodium hydroxide solution. The mixture is subsequently stirred at ambient temperature for 24 h. After filtering, 35.1 g of a solution with a dark brown-red colour are recovered.
The procedure of Example 1 or 2 is repeated but using, according to the invention, the ligands B, C, D and E of formula (I), the structures of which are described in Table 1 below, and varying the ligand/metal molar ratios, if appropriate.
The procedure of Example 2 is repeated by using the compounds G, H, I and J as ligands, the structures of which are described in Table 4 below, and varying the ligand/metal molar ratios, if necessary.
The procedure described in Example 1 is repeated but adjusting the pH of the solution to 6, 7, 9, 10 and 12.
A solution composed of 40 g of water and of 12.97 g of FeCl3 hexahydrate (0.048 mol) is added over 15 min to 43.5 g of an aqueous solution comprising 10.2 g of OHM.2Na (0.048 mol) while maintaining the temperature of the reaction medium at approximately 20° C. The pH of the solution is adjusted to 7 by addition of a 50% by weight aqueous sodium hydroxide solution (5.1 g). The mixture is subsequently stirred at ambient temperature for 5 weeks without specific protection with regard to light. After filtering, 80 g of a solution with a dark brown-red colour are recovered.
1.98 g (0.01 mol) of OHMNa are dissolved in 8 ml of water.
12.7 g of an aqueous solution comprising 2.7 g of FeCl3 hexahydrate (0.01 mol) are added over 15 min while maintaining the temperature of the reaction medium at approximately 20° C. The pH of the solution is adjusted to 7 by addition of 2.3 g of a 50% by weight aqueous sodium hydroxide solution. A suspension of 1.0 g (0.01 mol) of CaCO3 in 15 g of water is subsequently added. A few drops of 37% HCl are added to adjust the pH to 7. The mixture is subsequently stirred at ambient temperature for 24 hours. After filtering, 35.0 g of a solution with a dark brown-red colour are recovered.

[2] = Dissolution of Mg(II) cations with OHM.2Na at pH 12; assay type: physicochemical; details: 0.05 mol OHM.2Na
Protocol: (§4) To an aqueous solution (60 g) containing 0.05 mol of OHM.2Na, are added 9.9 g of an aqueous solution containing 0.025 mole of magnesium chloride (MgCl2). The pH is set at 12 with 1 g of an aqueous solution of HCl 1N. […] Without the OHM.2Na, the magnesium precipitate at pH 12 as a white solid (Mg(OH)2).
as §4, with “added 19.8” for “added 9.9”, “containing 0.05” for “containing 0.025”, “with 2.6” for “with 1”, “of NaOH 30%.” for “of HCl 1N.”

[3] = Dissolution of Cr(III) cations with OHMNa; metal in filtrate by ICP-OES; assay type: physicochemical
Protocol: as §1, §2, §3
(§5) The procedure of Example 1 is repeated but substituting FeCl3 by AlCl3, CrCl3.6H2O and Cu(OAc)2.H2O respectively.

[4] = Dissolution of Cu(II) cations with OHMNa; metal in filtrate by ICP-OES; assay type: physicochemical
Protocol: as §1, §2, §3, §5

[5] = Dissolution of Al(III) cations with OHMNa; metal in filtrate by ICP-OES; assay type: physicochemical
Protocol: as §1, §2, §3, §5

[6] = commercial chelates, background statement; cited from earlier work
[7] = Iron content of the dried powder by ICP-OES; assay type: physicochemical; details: ICP-OES measurement on powder
Protocol: as §1
The dark brown-red solution obtained in Example 1 is concentrated by distillation of water. The residue is dried in an oven at 50° C. for 48 h. A red-brown powder is obtained which comprises 12% by weight of iron by ICP-OES measurement.
A measurement on a powder formed of [Fe(o,o-EDDHA)Na] chelate available commercially gives only 7.8% by weight of iron.

[8] = background statement, on average; cited from earlier work
[9] = pH 7, stirred 24 h at ambient temperature, filtrate
[10] = pH 7, total Fe introduced / weight of filtrate
[11] = Table 6, comparative ligands, pH 7
[12] = Table 6, pH 7, ligand/iron molar ratio of 2/1

% by weight of Fe in solution measured [1, 9]: 1.3 % by weight | Theoretical % by weight of Fe in solution [1, 10]: 1.59 % by weight
SMILES: O=C(O)C(O)c1cc(Cl)ccc1O (stereo not shown) [5-chloro-2-hydroxymandelic acid]

% by weight measured (Fe in solution) ([1]; Table 3, ligands B-E, pH 7): 1.1 % by weight | Theoretical % by weight of Fe in solution ([1]; Table 3, ligands B-E, pH 7): 1.47 % by weight
SMILES: O=C([O-])C(O)c1ccc(O)cc1.[Na+] (stereo not shown) [Example 3]

% by weight measured (Fe in solution) ([1]; Table 3, ligands B-E, pH 7): 1.5 % by weight | Theoretical % by weight of Fe in solution ([1]; Table 3, ligands B-E, pH 7): 1.83 % by weight
SMILES: CCOc1cc(C(O)C(=O)O)ccc1O (stereo not shown) [Example 4]

% by weight measured (Fe in solution) ([1]; Table 3, ligands B-E, pH 7): 1.2 % by weight | Theoretical % by weight of Fe in solution ([1]; Table 3, ligands B-E, pH 7): 1.49 % by weight
SMILES: O=C(O)C(O)c1ccc(O)c(O)c1 (stereo not shown) [Example 5]

% by weight measured (Fe in solution) ([1]; Table 3, ligands B-E, pH 7): 1.4 % by weight | Theoretical % by weight of Fe in solution ([1]; Table 3, ligands B-E, pH 7): 1.46 % by weight
SMILES: O=C(O)C(O)c1cc(F)ccc1O (stereo not shown) [Example 6]

SMILES: O=C([O-])C(O)c1ccccc1[O-].[Na+].[Na+] (stereo not shown) [OHM.2Na, disodium salt of 2-(2-hydroxyphenyl)-2-hydroxyacetic acid]
Theoretical % by weight of Fe in solution ([1]; pH 7, 5 weeks stirring): 3.35 % by weight | % by weight of Fe in solution measured ([1]; pH 7, stirred 5 weeks at ambient temperature without protection from light): 3.2 % by weight | state of the solution after 24 hours under stirring ([2]; 0.025 mole MgCl2): still homogeneous, without any solid | state of the solution after 24 hours under stirring ([2]; 0.05 mole MgCl2): still homogeneous, without any solid

SMILES: O=C([O-])C(O)c1ccccc1O.[Na+] (stereo not shown) [OHMNa, sodium salt of 2-(2-hydroxyphenyl)-2-hydroxyacetic acid]
% by weight measured (Fe in solution) ([1]; OHMNa, pH 6): 1.7 % by weight | Theoretical % by weight of Fe in solution ([1]; OHMNa, pH 6): 2.18 % by weight | % by weight measured (Fe in solution) ([1]; OHMNa, pH 7): 2.3 % by weight | Theoretical % by weight of Fe in solution ([1]; OHMNa, pH 7): 2.33 % by weight | % by weight measured (Fe in solution) ([1]; OHMNa, pH 9): 1.9 % by weight | Theoretical % by weight of Fe in solution ([1]; OHMNa, pH 9): 1.96 % by weight | % by weight measured (Fe in solution) ([1]; OHMNa, pH 10): 2.7 % by weight | Theoretical % by weight of Fe in solution ([1]; OHMNa, pH 10): 2.80 % by weight | % by weight measured (Fe in solution) ([1]; OHMNa, pH 12): 1.9 % by weight | Theoretical % by weight of Fe in solution ([1]; OHMNa, pH 12): 1.92 % by weight | Theoretical % by weight of Fe in solution ([1]; pH 7, in the presence of CaCO3): 1.59 % by weight | % by weight of Fe in solution measured ([1]; pH 7, in the presence of CaCO3 (0.01 mol), 24 hours): 1.4 % by weight | % by weight of Fe in solution measured [1, 9]: 2.3 % by weight | Theoretical % by weight of Fe in solution [1, 10]: 2.33 % by weight | Theoretical % by weight of metal in solution ([3]; pH 7): 1.83 % by weight | % by weight measured (metal in solution) ([3]; pH 7, 24 h): 1.40 % by weight | Theoretical % by weight of metal in solution ([4]; pH 7): 1.43 % by weight | % by weight measured (metal in solution) ([4]; pH 7, 24 h): 1.40 % by weight | Theoretical % by weight of metal in solution ([5]; pH 7): 1 % by weight | % by weight measured (metal in solution) ([5]; pH 7, 24 h): 1 % by weight

% by weight of iron in the powder [7]: 7.8 % by weight
SMILES: O=C(O)C(NCCNC(C(=O)O)c1ccccc1O)c1ccccc1[O-].[Fe].[Na+] (stereo not shown) [[Fe(o,o-EDDHA)Na]]
solubility in water [6]: 150-300 g/l of water | level of iron of commercial chelates [8]: ~6 % by weight

Fe measured in the filtrate ([1]; FeCl3 hexahydrate without ligand, pH 7): less than 10 ppm
SMILES: O.O.O.O.O.O.[Cl-].[Cl-].[Cl-].[Fe+3] [compound 1, FeCl3 hexahydrate, reference compound]

% by weight measured (Fe in solution) [1, 11]: <0.0025 % by weight | Theoretical % by weight of Fe in solution [1, 11]: 2.88 % by weight | % by weight measured (Fe in solution) [1, 12]: 0.01 % by weight | Theoretical % by weight of Fe in solution [1, 12]: 1.67 % by weight
SMILES: O=C(O)Cc1ccccc1O [compound 2, reference compound]
dissolution of iron in aqueous solution at pH 7 (in words) ([1]; pH 7): do not make possible or make possible only to a very slight extent the dissolution of iron

% by weight measured (Fe in solution) [1, 11]: 0.5 % by weight | Theoretical % by weight of Fe in solution [1, 11]: 4.09 % by weight
SMILES: O=C(O)C(=O)c1ccccc1O [compound 3, reference compound]
dissolution of iron in aqueous solution at pH 7 (in words) ([1]; pH 7): do not make possible or make possible only to a very slight extent the dissolution of iron

% by weight measured (Fe in solution) [1, 11]: 0.09 % by weight | Theoretical % by weight of Fe in solution [1, 11]: 2.38 % by weight
SMILES: O=C(O)C(O)c1ccccc1 (stereo not shown) [compound 4, reference compound]
dissolution of iron in aqueous solution at pH 7 (in words) ([1]; pH 7): do not make possible or make possible only to a very slight extent the dissolution of iron

% by weight measured (Fe in solution) [1, 11]: 0.01 % by weight | Theoretical % by weight of Fe in solution [1, 11]: 4.73 % by weight
SMILES: O=C(O)C(O)c1ccccc1Cl (stereo not shown) [compound 5, reference compound]
dissolution of iron in aqueous solution at pH 7 (in words) ([1]; pH 7): do not make possible or make possible only to a very slight extent the dissolution of iron
